Measured values from patent publication US11161876B2, “Anti-inflammatory nanofibers” (Northwestern University, priority 2015, dated 2021).
* marks the point of attachment. C16 alkyl = CCCCCCCCCCCCCCCC*

Legend:
[1] = system: Rat Bladder Augmentation Model; test: Lectin labelling of functional blood vessels in regenerated bladder; type: in vivo; conditions: 5W post-augmentation
Procedure: In order to determine whether blood vessels in regenerating tissue underwent functional angiogenesis, a fluorochrome conjugated tomato lectin was injected into the animals immediately prior to euthanization to label potential angiogenic vessels. […] Magnification 400× (Scale bar, 50 μm).

[2] = system: Rat Bladder Augmentation Model; test: Bladder tissue collagen quantification (Masson's Trichrome); type: in vivo; conditions: for mean level of collagen in regenerated bladder tissue: means±SE; for collagen levels, in words: 10 days post-augmentation, compared between groups
Procedure: Athymic female rats (weighing ˜200 g and 8-10 weeks old; National Cancer Institute Animal Production Program) underwent bladder augmentation (ref. 15; herein incorporated by reference in its entirety). Athymic rats were chosen for this study to solely examine the innate immune response to inflammation without influence of the adaptive immune response. In order to induce anesthesia, animals were given intraperitoneal injections of 60 mg/kg ketamine and 5 mg/kg xylazine. A second injection consisting of Buprenex (1 mg/kg) was administered subcutaneously to alleviate any pain/discomfort during and following surgical procedures. An approximate 1.5 cm midline vertical skin incision was created to expose the abdominal fascia and muscles. This was immediately followed by the separation of the wall leading to the identification of the bladder. An approximate 70% supratrigonal cystectomy was performed from anterior to posterior creating a clamshell. Immediately prior to bladder augmentation procedures, samples of the pro-inflammatory biological scaffold, small intestinal submucosa (SIS (0.5×0.5 cm); Cook Biotech.) (refs. 12,13,16; herein incorporated by reference in their entireties) were thoroughly dip-coated separately in one of the previously described AIF-PAs following gelation procedures. The sections of SIS were dip-coated for approximately 20 seconds and allowed to adhere to the SIS for an additional 30 seconds. Dip-coating procedures were performed at room temperature in air. The cystectomized bladder defect was then augmented with: 1) SIS (non-AIF-PA coated SIS; n=8 animals over both time-points); 2) AIF-PA1 coated SIS (denoted as SIS/AIF-PA1; n=11 animals over both time-points); 3) AIF-PA2 coated SIS (denoted as SIS/AIF-PA2; n=8 animals over both time-points); 4) AIF-PA3 coated SIS (denoted as SIS/AIF-PA3; n=3); 5) AIF-PA4 coated SIS (denoted as SIS/AIF-PA4; n=3 animals); 6) AIF-PA5 coated SIS (denoted as SIS/AIF-PA5; n=3 animals); and 7) AIFC-PA6 coated SIS (denoted as SIS/AIFC-PA6; n=9 animals over both time-points). The bladder was finally covered with omentum after being closed in a watertight manner utilizing 7-0 polyglactin suture. The abdominal wall was then closed in a single layer with 5-0 ethibond running suture and the skin re-approximated with 9 mm autoclips. Each group was sacrificed at 10 day and 5 week time-points.
Explanted bladder specimens encompassing the entire thickness of the bladder were isolated immediately following euthanasia and processed (ref. 15; herein incorporated by reference in its entirety). Specimens were fixed in a 10% buffered formalin phosphate (Fisher Scientific, Inc.) solution followed by a series of graded ethanol exchanges then embedded in paraffin (Fisher Scientific). Embedded tissues were sectioned onto glass slides at a thickness of 10 μm using a RM2125 RT Microtome (Leica) onto glass slides and subjected to staining with Masson's Trichrome (Sigma-Aldrich Corp.) reagent. The paraffin was removed from tissue containing slides using a hot plate at 62° C. for 6 minutes and was followed by treatment with xylenes, graded ethanol washes and DI water. Slides were placed in Bouin's solution (Sigma-Aldrich Corp.) for approximately 15 min then rinsed under running tap water. The samples were then stained 5 minutes with Hematoxylin and rinsed with running water and subsequently stained with Scarlet-Acid Fuchsin (Sigma-Aldrich Corp.). Slides were rinsed again with DI water and placed into a mixture of PTA/PMA, followed by Aniline Blue solution and a 1% acetic acid wash. Finally, slides were placed in 95-100% ethanol and rinsed in xylene. Following air drying, a coverslip was placed over the specimen sample and secured with Permaslip (Alban Scientific Inc).
Bladder tissue specimens were evaluated for collagen content (refs. 13,15,17; herein incorporated by reference in their entireties). […]

In the case of “C16-VVVAAAEEEHDMNKVLDL (SEQ ID NO:2) ({C16 alkyl}-VVVAAAEEEHDMNKVLDL-NH2) [SIS/AIF-PA2, anti-inflammatory peptide amphiphile, tested dip-coated on small intestinal submucosa (SIS) scaffold]”, the “functional angiogenesis of newly formed blood vessels (lectin)” value [1] is reported as “functional, patent blood vessels”, the “mean level of collagen in regenerated bladder tissue” value (“mean level of collagen” below) ([2]; 5W post-augmentation) is reported as 58.0±0.6% and the “mean level of collagen” value ([2]; 10D post-augmentation) is reported as 58.6±0.4%. The “collagen levels, in words” value [2] was “lesser degrees of collagen”.

For “C16-VVVAAAEEEKLMSQKMVD (SEQ ID NO:6) ({C16 alkyl}-VVVAAAEEEKLMSQKMVD-NH2) [SIS/AIFC-PA6, reference compound]”, the “mean level of collagen” value ([2]; 5W post-augmentation) was 68.8±2.7% and the “mean level of collagen” value ([2]; 10D post-augmentation) was 71.5±1.4%.

“C16-VVVAAAEEEMQMKKVLDS (SEQ ID NO:1) ({C16 alkyl}-VVVAAAEEEMQMKKVLDS-NH2) [SIS/AIF-PA1, anti-inflammatory peptide amphiphile, tested dip-coated on small intestinal submucosa (SIS) scaffold]” was tested, and the “functional angiogenesis of newly formed blood vessels (lectin)” value [1] was “functional, patent blood vessels”, the “mean level of collagen” value ([2]; 5W post-augmentation) was 55.0±1.2% and the “mean level of collagen” value ([2]; 10D post-augmentation) was 59.1±1.1%. For the same substance, the “collagen levels, in words” value [2] was “lesser degrees of collagen”.
